Measured values taken from patent US11072598B2, “Somatostatin modulators and uses thereof” (CRINETICS PHARMACEUTICALS, INC., priority 2017, dated 2021).

Target: T1, human somatostatin receptor subtype 2 (Homo sapiens, UniProt P30874)
T1 construct: expressed in transfected cells
Test: cAMP functional assay for SSTR2 agonists
Type: cell-based
Details: inhibition of cAMP activities via human SST2 receptor (SSTR2), CHO-K1 cells; read-out: EC50
Source text: General overview: All five SSTR subtypes are Gi coupled G-protein coupled receptors (GPCRs) that lead to decreases in intracellular cyclic AMP (cAMP) when activated by an agonist. Therefore, measurement of intracellular cAMP levels can be used to assess whether compounds of the invention are agonists of SSTR subtypes (John Kelly, Troy Stevens, W. Joseph Thompson, and Roland Seifert, Current Protocols in Pharmacology, 2005, 2.2.1-2.2). One example of an intracellular cAMP assay is described below. cAMP assay protocol:
Four days prior to the assay, 5,000 Chinese hamster ovary cells (CHO-K1, ATCC #CCL-61) stably expressing the human somatostatin receptor subtype 2 are plated in each well of a 96-well tissue culture-treated plate in Ham's F12 growth media (ThermoFisher #10-080-CM) supplemented with 10% donor bovine serum (Gemini Bio-Products #100-506), 100 U/mL penicillin; 100 ug/mL streptomycin; 2 mM L-glutamine (Gemini Bio-Products #400-110) and 0.2 mg/mL hygromycin B (GoldBio #31282-04-9). The cells are cultured at 37° C., 5% CO2 and 95% humidity. On the day of the assay, the media is aspirated and the cells are treated with 50 μL of 1.6 μM NKH477 (Sigma #N3290) plus various dilutions of compounds of the invention in assay buffer [1× Hank's Balanced Salt Solution (ThermoFisher #SH3058802), 0.5 mM HEPES pH 7.4, 0.1% bovine serum albumin, 0.2 mM 3-Isobutyl-1-methylxanthine (IBMX, VWR #200002-790)]. The cells are incubated for 20 minutes at 37° C. […] The cells are treated with 50 μL of lysis buffer (HRTF cAMP kit, Cisbio). The lysate is transferred to 384-well plates and cAMP detection and visualization antibodies are added and incubated for 1-24 hours at room temperature. The time-resolved fluorescent signal is read with a Tecan M1000Pro multiplate reader. The intracellular cAMP concentrations are calculated by regression to a standard curve and are plotted vs. the concentration of the compounds of the invention and the EC50 of the compounds are calculated using standard methods. All data manipluations are in GraphPad Prism v6.

T1 sequence (P30874 whole entry): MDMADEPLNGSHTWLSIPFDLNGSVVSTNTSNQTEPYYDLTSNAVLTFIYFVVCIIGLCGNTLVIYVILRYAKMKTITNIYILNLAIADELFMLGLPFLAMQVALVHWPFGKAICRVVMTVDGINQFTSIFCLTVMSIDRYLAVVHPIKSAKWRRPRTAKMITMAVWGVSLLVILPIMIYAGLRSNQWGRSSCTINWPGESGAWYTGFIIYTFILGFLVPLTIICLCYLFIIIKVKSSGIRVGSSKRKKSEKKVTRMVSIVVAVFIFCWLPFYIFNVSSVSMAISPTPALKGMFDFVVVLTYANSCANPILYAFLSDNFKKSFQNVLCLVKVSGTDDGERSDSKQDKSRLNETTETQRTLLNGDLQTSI

Row | Structure (SMILES) | EC50 [nM]
1 | Cc1cc(F)cc(-c2cnnc(-c3cc4c(Cl)cccc4[nH]3)c2N2CCC(N)CC2)c1 [Compound 3-6, 1-[3-(4-chloro-1H-indol-2-yl)-5-(3-fluoro-5-methylphenyl)pyridazin-4-yl]piperidin-4-amine] | < 10
2 | COc1ccc2[nH]c(-c3nncc(-c4cc(C)cc(F)c4)c3N3CCC(N)CC3)nc2c1 [Compound 3-10, 1-[5-(3-fluoro-5-methylphenyl)-3-(5-methoxy-1H-1,3-benzodiazol-2-yl)pyridazin-4-yl]piperidin-4-amine] | < 10
3 | Cc1cc(F)cc(-c2cnnc(-c3cc4cc(F)ccc4[nH]3)c2N2CCC(N)CC2)c1 [Compound 3-8, 1-[3-(5-fluoro-1H-indol-2-yl)-5-(3-fluoro-5-methylphenyl)pyridazin-4-yl]piperidin-4-amine] | < 10
4 | Cc1cc(F)cc(-c2cnc(N)c(-c3nc4cc(C#N)cc(F)c4[nH]3)c2N2CCC(N)CC2)c1 [Compound 1-69, 2-[2-amino-4-(4-aminopiperidin-1-yl)-5-(3-fluoro-5-methylphenyl)pyridin-3-yl]-7-fluoro-1H-1,3-benzodiazole-5-carbonitrile] | < 10
5 | Cc1cc(F)cc(-c2cnc(N)c(-c3nc4cc(OC5CC5)ccc4[nH]3)c2N2CCC(N)CC2)c1 [Compound 1-20, 4-(4-aminopiperidin-1-yl)-3-(5-cyclopropoxy-1H-1,3-benzodiazol-2-yl)-5-(3-fluoro-5-methylphenyl)pyridin-2-amine] | < 10
6 | CONC(=O)Nc1ccc2[nH]c(-c3c(N)ncc(-c4cc(C)cc(F)c4)c3N3CCC(N)CC3)nc2c1 [Compound 1-46, 1-{2-[2-amino-4-(4-aminopiperidin-1-yl)-5-(3-fluoro-5-methylphenyl)pyridin-3-yl]-1H-1,3-benzodiazol-5-yl}-3-methoxyurea] | < 10
7 | Cc1cc(F)cc(-c2cnnc(-c3cc4cc(C#N)ccc4[nH]3)c2N2CCC(N)CC2)c1 [Compound 3-17, 2-[4-(4-aminopiperidin-1-yl)-5-(3-fluoro-5-methylphenyl)pyridazin-3-yl]-1H-indole-5-carbonitrile] | < 10
8 | COc1ccc2c(Cl)c(-c3nncc(-c4cc(C)cc(F)c4)c3N3CCC(N)CC3)[nH]c2c1 [Compound 3-21, 1-[3-(3-chloro-6-methoxy-1H-indol-2-yl)-5-(3-fluoro-5-methylphenyl)pyridazin-4-yl]piperidin-4-amine] | < 10
9 | Nc1ncc(-c2cc(F)cc(Cl)c2)c(N2CCC(N)CC2)c1-c1nc2cc(F)cc(F)c2[nH]1 [Compound 1-77, 4-(4-aminopiperidin-1-yl)-5-(3-chloro-5-fluorophenyl)-3-(5,7-difluoro-1H-1,3-benzodiazol-2-yl)pyridin-2-amine] | < 10
10 | C#Cc1cc(F)c2[nH]c(-c3c(N)ncc(-c4cc(C)cc(F)c4)c3N3CCC(N)CC3)nc2c1 [Compound 1-66, 4-(4-aminopiperidin-1-yl)-3-(5-ethynyl-7-fluoro-1H-1,3-benzodiazol-2-yl)-5-(3-fluoro-5-methylphenyl)pyridin-2-amine] | < 10
11 | Cc1cc(F)cc(-c2cnc(N(C)C)c(-c3nc4cc(F)cc(F)c4[nH]3)c2N2CCC(N)CC2)c1 [Compound 4-5, 4-(4-aminopiperidin-1-yl)-3-(5,7-difluoro-1H-1,3-benzodiazol-2-yl)-5-(3-fluoro-5-methylphenyl)-N,N-dimethylpyridin-2-amine] | < 10
12 | Cc1cc(F)cc(-c2cnc(N)c(-c3nc4cnccc4[nH]3)c2N2CCC(N)CC2)c1 [Compound 1-51, 4-(4-aminopiperidin-1-yl)-5-(3-fluoro-5-methylphenyl)-3-{1H-imidazo[4,5-c]pyridin-2-yl}pyridin-2-amine] | < 10
13 | Cc1cc(F)cc(-c2cnc(N)c(-c3nc4cc(S(C)(=O)=O)ccc4[nH]3)c2N2CCC(N)CC2)c1 [Compound 1-53, 4-(4-aminopiperidin-1-yl)-5-(3-fluoro-5-methylphenyl)-3-(5-methanesulfonyl-1H-1,3-benzodiazol-2-yl)pyridin-2-amine] | < 10
14 | Cc1cc(F)cc(-c2cnnc(-c3cc4ccc(C)cc4[nH]3)c2N2CCC(N)CC2)c1 [Compound 3-16, 1-[5-(3-fluoro-5-methylphenyl)-3-(6-methyl-1H-indol-2-yl)pyridazin-4-yl]piperidin-4-amine] | < 10
15 | Cc1cc(F)cc(-c2cnc(N)c(-c3nc4cc5c(cc4[nH]3)OC(F)(F)O5)c2N2CCC(N)CC2)c1 [Compound 1-31, 4-(4-aminopiperidin-1-yl)-3-{5,5-difluoro-4,6-dioxa-10,12-diazatricyclo[7.3.0.0^3,7]dodeca-1,3 (7),8,10-tetraen-11-yl}-5-(3-fluoro-5-methylphenyl)pyridin-2-amine] | < 10
16 | COc1ccc2[nH]c(-c3nncc(-c4cc(C)cc(F)c4)c3N3CCC(N)CC3)cc2c1 [Compound 3-9, 1-[5-(3-fluoro-5-methylphenyl)-3-(5-methoxy-1H-indol-2-yl)pyridazin-4-yl]piperidin-4-amine] | < 10
17 | Cc1cc(F)cc(-c2cnc(N)c(-c3nc4cccc(C=NO)c4[nH]3)c2N2CCC(N)CC2)c1 [Compound 1-22, 4-(4-aminopiperidin-1-yl)-5-(3-fluoro-5-methylphenyl)-3-{7-[(hydroxyimino)methyl]-1H-1,3-benzodiazol-2-yl]pyridin-2-amine] | < 10
18 | Cc1cc(F)cc(-c2cnc(N)c(-c3nc4ccc(Cl)cc4n3C)c2N2CCC(N)CC2)c1 [Compound 1-29, 4-(4-aminopiperidin-1-yl)-3-(6-chloro-1-methyl-1H-1,3-benzodiazol-2-yl)-5-(3-fluoro-5-methylphenyl)pyridin-2-amine] | < 10
19 | COc1ccc2c(C#N)c(-c3nncc(-c4cc(C)cc(F)c4)c3N3CCC(N)CC3)[nH]c2c1 [Compound 3-25, 2-[4-(4-aminopiperidin-1-yl)-5-(3-fluoro-5-methylphenyl)pyridazin-3-yl]-6-methoxy-1H-indole-3-carbonitrile] | < 10
20 | N#Cc1cc(F)cc(-c2cnc(N)c(-c3nc4cc(Cl)ccc4[nH]3)c2N2CCC(N)CC2)c1 [Compound 1-32, 3-[6-amino-4-(4-aminopiperidin-1-yl)-5-(5-chloro-1H-1,3-benzodiazol-2-yl)pyridin-3-yl]-5-fluorobenzonitrile] | < 10
21 | Nc1ncc(-c2cc(F)cc(F)c2)c(N2CCC(N)CC2)c1-c1nc2cc(Cl)ccc2[nH]1 [Compound 1-81, 4-(4-aminopiperidin-1-yl)-3-(5-chloro-1H-1,3-benzodiazol-2-yl)-5-(3,5-difluorophenyl)pyridin-2-amine] | < 10
22 | Cc1cc(C)cc(-c2cnc(N)c(C=NOC(C)(C)C)c2N2CCC(N)CC2)c1 [Compound 1-36] | 10 to 100
23 | Cc1cc(F)cc(-c2cnc(N)c(C=NOC(C)(C)C)c2N2CCC(N)CC2)c1 [Compound 1-35] | < 10
24 | Cc1cc(F)cc(-c2cnc(N)c(C=NOC(C)C)c2N2CCC(N)CC2)c1 [Compound 1-34] | < 10
25 | COc1cc(F)cc(-c2cnc(N)c(-c3nc4cc(F)cc(F)c4[nH]3)c2N2CCC(N)CC2)c1 [Compound 1-67, 4-(4-aminopiperidin-1-yl)-3-(5,7-difluoro-1H-1,3-benzodiazol-2-yl)-5-(3-fluoro-5-methoxyphenyl)pyridin-2-amine] | < 10
26 | CON=Cc1cccc2[nH]c(-c3c(N)ncc(-c4cc(C)cc(F)c4)c3N3CCC(N)CC3)nc12 [Compound 1-44, 4-(4-aminopiperidin-1-yl)-5-(3-fluoro-5-methylphenyl)-3-{4-[(methoxyimino)methyl]-1H-1,3-benzodiazol-2-yl}pyridin-2-amine] | < 10
27 | Cc1cc(F)cc(-c2cnnc(-c3nc4cc(F)ccc4[nH]3)c2N2CCC(N)CC2)c1 [Compound 3-13, 1-[3-(5-fluoro-1H-1,3-benzodiazol-2-yl)-5-(3-fluoro-5-methylphenyl)pyridazin-4-yl]piperidin-4-amine] | < 10
28 | CNC1CCN(c2c(-c3cc(C)cc(F)c3)cnc(N)c2-c2nc3ccc(C#N)cc3[nH]2)CC1 [Compound 4-2, 2-[2-amino-5-(3-fluoro-5-methylphenyl)-4-[4-(methylamino)piperidin-1-yl]pyridin-3-yl]-1H-1,3-benzodiazole-6-carbonitrile] | < 10
29 | CON(C)C(=O)c1cccc2nc(-c3c(N)ncc(-c4cc(C)cc(F)c4)c3N3CCC(N)CC3)[nH]c12 [Compound 1-18, 2-[2-amino-4-(4-aminopiperidin-1-yl)-5-(3-fluoro-5-methylphenyl)pyridin-3-yl]-N-methoxy-N-methyl-1H-1,3-benzodiazole-7-carboxamide] | 10 to 100
30 | Cc1cc(F)cc(-c2cnc(Cl)c(-c3nc4cc(F)ccc4[nH]3)c2N2CCC(N)CC2)c1 [Compound 2-11, 1-[2-chloro-3-(5-fluoro-1H-1,3-benzodiazol-2-yl)-5-(3-fluoro-5-methylphenyl)pyridin-4-yl]piperidin-4-amine] | < 10
